The numbers were not newly measured in patent US20140256822A1, “TRANSMUCOSAL DRUG DELIVERY SYSTEM” (priority 2013, published 2014), which cites them from elsewhere.

For the series the following is noted: at a pH of 6.8.

SMILES strings stand for the structures.

Consider `CN1CCCC1c1cccnc1` (stereo not shown) [nicotine], for which the “nicotine in the free base form” value is “about 10%”.
